Measured values from ChEMBL document CHEMBL1201862, “PubChem BioAssay data set” (2004).
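Step 1: Grow cells in 96-well plates. Step 2: Expose to compound for 48 hours at 5 concentrations. Step 3: Interpolate endpoints linearly; if unreached, use highest concentration. Here, GI50 denotes the concentration required for 50% inhibition of growth.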 The source made the active and inactive calls. No stated cut-off is given here; in the data, active = GI50 up to about 1.1 µM and inactive = higher.

Experiments:
Assay in all cases: NCI tumour cell line growth inhibition, 48 h
[1] = system: HCT-116
[2] = system: SF-295
[3] = system: HCT-15
[4] = system: EKVX
[5] = system: SK-OV-3
[6] = system: CCRF-CEM
[7] = system: SW-620
[8] = system: HOP-92
[9] = system: NCI-H522
[10] = system: MDA-MB-435
[11] = system: IGROV-1
[12] = system: MDA-N
[13] = system: Hs-578T
[14] = system: MDA-MB-231
[15] = system: A549
[16] = system: MOLT-4
[17] = system: HT-29
[18] = system: SK-MEL-2
[19] = system: T47D
[20] = system: DU-145
[21] = system: Malme-3M
[22] = system: NCI-H23
[23] = system: MCF7
[24] = system: SN12C
[25] = system: UO-31
[26] = system: OVCAR-8
[27] = system: M14
[28] = system: BT-549
[29] = system: RPMI-8226
[30] = system: NCI-H460
[31] = system: PC-3
[32] = system: SK-MEL-5
[33] = system: HL-60
[34] = system: COLO 205
[35] = system: SF-268
[36] = system: UACC-257
[37] = system: A498
[38] = system: NCI/ADR-RES
[39] = system: UACC-62
[40] = system: HOP-62
[41] = system: KM12
[42] = system: SNB-19
[43] = system: RXF 393
[44] = system: TK-10
[45] = system: LOX IMVI
[46] = system: CAKI-1
[47] = system: U-251
[48] = system: SR
[49] = system: NCI-H226
[50] = system: ACHN
[51] = system: SK-MEL-28
[52] = system: OVCAR-4
[53] = system: OVCAR-5
[54] = system: 786-0
[55] = system: HCC 2998
[56] = system: K562
[57] = system: SF-539
[58] = system: OVCAR-3
[59] = system: SNB-75

Measured: GI50

N#Cc1c(-c2ccc(Cl)cc2Cl)nc2[nH]nc(S)n2c1=O
> 100 µM: [3]
inactive: [1] > 100 µM | [2] > 100 µM | [4] > 100 µM | [5] > 100 µM | [6] > 100000 nM | [7] > 100 µM | [8] > 100 µM | [9] > 100 µM | [10] > 100 µM | [11] > 100 µM | [12] > 100 µM | [13] > 100 µM | [14] > 100 µM | [15] > 100 µM | [16] > 100 µM | [17] > 100 µM | [18] > 100 µM | [19] > 100 µM | [20] > 100 µM | [21] > 100 µM | [22] > 100 µM | [23] > 100 µM | [24] > 100 µM | [25] > 100 µM | [26] > 100 µM | [27] > 100 µM | [28] > 100 µM | [29] > 100 µM | [30] > 100 µM | [31] > 100 µM | [32] > 100 µM | [33] > 100 µM | [34] > 100 µM | [35] > 100 µM | [36] > 100 µM | [37] > 100 µM | [38] > 100 µM | [39] > 100 µM | [40] > 100 µM | [41] > 100 µM | [42] > 100 µM | [43] > 100 µM | [44] > 100 µM | [45] > 100 µM | [46] > 100 µM | [47] > 100 µM | [48] > 100 µM | [49] > 100 µM | [50] > 100 µM | [51] > 100 µM | [52] > 100 µM | [53] > 100 µM | [54] > 100 µM | [55] > 100 µM

C[C@@]12CCC3C1C=C1C(=O)c4cc(O)ccc4C(=O)[C@]1(O2)[C@@]3(C)C=O
active: [6] 977 nM
2.66 µM: [3]
inactive: [1] 3.52 µM | [2] 11.5 µM | [4] 9.71 µM | [5] 10.2 µM | [7] 3.9 µM | [8] 10.3 µM | [9] 2.94 µM | [10] 3.15 µM | [11] 5.55 µM | [12] 3.48 µM | [13] 16.2 µM | [14] 8.71 µM | [15] 12 µM | [16] 2.3 µM | [17] 4.67 µM | [18] 8.91 µM | [19] 3.55 µM | [20] 2.91 µM | [22] 3.93 µM | [23] 3.52 µM | [24] 2.02 µM | [56] 2.3 µM | [25] 4.9 µM | [26] 6.01 µM | [27] 8.34 µM | [28] 2.51 µM | [57] 3.82 µM | [29] 2.2 µM | [30] 2.85 µM | [31] 7.8 µM | [32] 7.29 µM | [33] 1.42 µM | [34] 9.31 µM | [35] 9.91 µM | [36] 9.16 µM | [37] 1.48 µM | [38] 9.31 µM | [39] 7.43 µM | [40] 8.59 µM | [41] 4.79 µM | [42] 8.95 µM | [43] 4.3 µM | [44] 11.6 µM | [45] 2.57 µM | [46] 4.09 µM | [47] 9.44 µM | [48] 1.58 µM | [49] 12.6 µM | [50] 7.11 µM | [52] 6.22 µM | [53] 13.7 µM | [54] 4.14 µM | [58] 3.72 µM | [55] 2.97 µM

CCOC(=O)Cc1nc2sc(S(N)(=O)=O)nn2c1Br
inactive: [1] 31 µM | [2] > 100 µM | [4] 26.6 µM | [5] > 100 µM | [7] 23.6 µM | [8] 22.8 µM | [9] 19.1 µM | [10] 38.7 µM | [11] 28.4 µM | [12] 35.1 µM | [13] > 100 µM | [14] 17.6 µM | [15] 33 µM | [17] 19.4 µM | [18] 28.5 µM | [19] 27.3 µM | [20] 33.9 µM | [21] 29.2 µM | [22] 27.6 µM | [23] 24.7 µM | [24] 23.5 µM | [56] 41.5 µM | [59] 32.1 µM | [25] 15.8 µM | [26] 21.3 µM | [27] 15.7 µM | [28] 32.1 µM | [29] 17.3 µM | [30] 32 µM | [31] 22 µM | [32] 16.1 µM | [33] 25.5 µM | [34] 39.4 µM | [35] 56.5 µM | [36] 29.9 µM | [37] 26.5 µM | [38] 47.4 µM | [39] 16.6 µM | [40] > 100 µM | [41] 32.3 µM | [42] 87.7 µM | [43] 21.7 µM | [44] 35.1 µM | [45] 16.1 µM | [46] 17.2 µM | [47] 15.3 µM | [48] 40.6 µM | [49] 27.2 µM | [50] 27.2 µM | [51] 33.1 µM | [53] 22.1 µM | [54] 23.2 µM | [58] 36.6 µM | [55] 22.2 µM
active: [6] < 10 nM
23.7 µM: [3]
